The text below walks through data of PubChem BioAssay AID652207 (The Scripps Research Institute Molecular Screening Center, 2013).

This test concerns the target Serine/threonine-protein phosphatase PP1-alpha catalytic subunit (Homo sapiens) (UniProt P62136). Put plainly: dose-dependent PP1alpha phosphatase inhibition – biochemical, fluorescence, OMFP substrate, set 2, dose response (AID 652207). To be noted: purified PP1alpha, OMFP dephosphorylation fluorescence.

Active and inactive are the calls of the source.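 How the source made its calls: active means IC50 below 10 µM for blocking the PP1 phosphatase acting on a fluorogenic substrate; inactive means IC50 of 10 µM or more.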

Chain of Serine/threonine-protein phosphatase PP1-alpha catalytic subunit (Homo sapiens) (P62136 whole entry, looked up): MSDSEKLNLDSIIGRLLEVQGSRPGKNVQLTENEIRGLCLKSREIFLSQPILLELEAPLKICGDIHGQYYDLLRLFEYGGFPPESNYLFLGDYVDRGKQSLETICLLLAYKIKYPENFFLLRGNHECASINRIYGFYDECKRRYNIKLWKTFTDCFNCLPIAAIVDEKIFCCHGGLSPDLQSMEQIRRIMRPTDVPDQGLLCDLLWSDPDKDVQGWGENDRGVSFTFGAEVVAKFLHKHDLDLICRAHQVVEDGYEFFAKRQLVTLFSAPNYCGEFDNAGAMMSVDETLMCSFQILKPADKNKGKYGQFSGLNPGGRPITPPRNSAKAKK

As for `Oc1c(Cc2ccccn2)ccc2cccnc12`, the concentration for half-maximal inhibition (IC50) (usually the point on the concentration scale where inhibition reaches its midpoint) was 2640 nM.
The result for `CN1CCN(C(c2cccs2)c2cc(Cl)c3cccnc3c2O)CC1` (stereo unspecified) reads 8420 nM; that for `CN1CCN(C(c2ccccn2)c2ccc3cccnc3c2O)CC1` (stereo unspecified), 1150 nM.
As for `CN1CCN(C(c2nccs2)c2cc(Cl)c3cccnc3c2O)CC1` (stereo unspecified), the figure is 1620 nM; as for `Oc1c(C(c2ccccn2)N2CCOCC2)cc(Cl)c2cccnc12` (stereo unspecified), 1320 nM; as for `CN1CCN(Cc2cc(Cl)c3cccnc3c2O)CC1`, “inactive”.
